Laboratory results as given in PubChem BioAssay AID624285 (Broad Institute, 2012).
Values joined by “and” are separate entries in the source; they are usually repeats but may differ in a detail not shown here. Equal values may be shown once. Active and inactive are the calls of the source.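 How the source made its calls: active means signal-decreasing dose-response curve whose fitted half-maximal concentration is at or below twice the highest valid tested dose; inconclusive means flat fit at 30 to 70% signal loss, or poor fit; inactive means the rest.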

Assay: cytotoxicity in mammalian cells, dose response, cytotoxicity control for PDI inhibitor project, cell-based, 24 h, luminescence, cherry-picked samples (AID 624285)
Settings: NIH3T3/HeLa viability, CellTiter-Glo ATP luminescence, 24 h

SMILES | activity change, negative = cytotoxicity (at 35 µM (top of the series)) | activity change, negative = cytotoxicity (at 30 µM (top of the series))
Cc1c(C(=O)N2CCOCC2)sc2ncn(CC(=O)N3CCC(C)CC3)c(=O)c12 | -2.62% (inactive) | 
CN(C)C(=O)CSc1nnc([C@H](Cc2c[nH]c3ccccc23)NC(=O)OC(C)(C)C)o1 | -2.37% (inactive) | 
CN(C)CCN(C(=O)c1ccc(S(=O)(=O)N2CCc3ccccc32)cc1)c1nc2ccc(F)cc2s1 | -13.9% (inactive) | 
CC(C)Oc1cccc(C(=O)NC(=S)Nc2cccc(NC(=O)c3ccccc3Cl)c2)c1 | -18.2% (inactive) | 
C[C@H](CO)N1C[C@H](C)[C@@H](CN(C)S(=O)(=O)c2ccccc2)Oc2ccc(NC(=O)Cc3cn(C)c4ccccc34)cc2C1=O | -1.88% (inactive) | 
Cc1noc(C)c1S(=O)(=O)Nc1ccc2c(c1)CC(=O)N([C@H](C)CO)C[C@H](C)[C@H](CN(C)S(=O)(=O)c1ccc(F)cc1)O2 | 0.678% (inactive) and -3.98% (inactive) | 
CCCCNC(=O)CCn1c(=O)c2ccccc2n(CC(=O)Nc2ccccc2OCC)c1=O | -9.28% (inactive) | 
Cc1cc(Cl)ccc1OCc1n[nH]c(=S)n1C1CCCCC1 | -11% (inactive) | 
CCOC(=O)C1(CC2CC2)CCN(Cc2cc(Cl)c(O)c(OC)c2)CC1 | -20.4% (inactive) | 
CCCCn1c(SCC(=O)Nc2ccc(C)c(S(=O)(=O)N3CCOCC3)c2)nnc1C(CC)N(C)C (centres undefined) | 1.22% (inactive) | 
COc1ccc2c(CC(=O)OCC(=O)N(C)c3c(N)n(Cc4ccccc4)c(=O)[nH]c3=O)coc2c1 | -8.77% (inactive) | 
Cc1noc(C)c1S(=O)(=O)Nc1ccc2c(c1)CC(=O)N([C@H](C)CO)C[C@H](C)[C@@H](CN(C)S(=O)(=O)c1ccc(F)cc1)O2 | 4.98% (inactive) | 
O=C(/C=C/c1ccccc1)Nc1scc(-c2ccccc2)c1C(=O)O | -11.6% (inactive) | 
C[C@@H]1O[C@@H](Oc2c(-c3ccc(O)c(O)c3)oc3cc(O)cc(O)c3c2=O)[C@H](O)[C@H](O)[C@H]1O | -1.28% (inactive) and -10.2% (inactive) | 
CCCNC(=O)Cn1c(-c2ccc(F)cc2)cc(C(=O)OCC)c1C | -18.9% (inactive) | 
O=C1NC[C@H](Cc2ccccc2)N(C[C@H]2CCCN2C[C@H](Cc2ccc(O)cc2)N2C[C@H](Cc3ccc(O)cc3)N(CC3CCCCCC3)C(=O)C2=O)C1=O | -18.9% (inactive) | 
CCOC(=O)CN(c1ccccc1)S(=O)(=O)c1ccc(F)cc1 | -10.3% (inactive) | 
Cc1cccc(C)c1NC(=O)CN1CCNCC1 | -9.95% (inactive) | 
FC(F)(F)c1cccc(NC(=S)NCc2ccccn2)c1 | -2.29% (inactive) | 
CCN1CC2(COC(=O)c3ccccc3N)CCC(OC)C34C5CC6C(OC)CC(O)(C5C6OC)C(O)(C(OC)C23)C14 (centres undefined) | -11.8% (inactive) | 
COc1ccc(S(=O)(=O)NC(C)C(=O)Nc2ccccc2F)cc1 (centres undefined) | -4.66% (inactive) | 
CCOC(C(=O)OCCCN(CC)CC)(c1ccccc1)c1ccccc1 | -17.8% (inactive) | 
CC(NCC(O)COCc1ccc(Cl)cc1)c1ccccc1 (centres undefined) | -15.3% (inactive) | 
Cc1cc(C)cc(CC(=O)N2CCC2(C)C(=O)NS(=O)(=O)c2ccc(Br)cc2)c1 (centres undefined) | -4.97% (inactive) | 
C[C@H]1CN([C@@H](C)CO)C(=O)c2cccc(NS(C)(=O)=O)c2O[C@H]1CN(C)Cc1ccc(Oc2ccccc2)cc1 | -4.63% (inactive) | 

SMILES | activity change, negative = cytotoxicity (at 35 µM (top of the series)) | activity change, negative = cytotoxicity (at 30 µM (top of the series))
C[C@@H]1O[C@@H](O[C@@H]2C(=O)c3c(O)cc(O)cc3O[C@H]2c2ccc(O)c(O)c2)[C@H](O)[C@H](O)[C@H]1O | -7.93% (inactive) | 
CCN(CC)CCNC(=O)C(C(=O)c1ccccc1)n1ccccc1=O (centres undefined) | -1.54% (inactive) | 
COc1cc(CCC(=O)OCC(=O)Nc2cc(S(=O)(=O)N3CCOCC3)ccc2Cl)cc(OC)c1OC | -2.35% (inactive) | 
C[C@@H]1CN([C@@H](C)CO)C(=O)c2cc(NC(=O)Cc3cn(C)c4ccccc34)ccc2O[C@H]1CN(C)S(=O)(=O)c1ccc(F)cc1 | 3.15% (inactive) | 
CCC(=O)Nc1ccc(-c2cc3ccccc3oc2=O)cc1 | -7.54% (inactive) | 
Cn1nccc1C(=O)Nc1ccc(S(=O)(=O)N2CCCC2)cc1 | -14.9% (inactive) | 
CC(Cc1ccc(O)cc1)NCC(O)c1ccc(O)c(O)c1 (centres undefined) | -7.22% (inactive) | 
CCN(CC(=O)Nc1ccc2c(c1)OCCO2)C(=O)CC1CCCC1 | -11.8% (inactive) | 
CCOc1ccc(C(=O)NCC(=O)OCC(=O)N(C)CC(=O)Nc2ccccc2CC)cc1OCC | -4.27% (inactive) | 
Cc1cccc(NC(=S)NCC23C=CC(O2)C2C(=O)N(c4ccc(Cl)cc4)C(=O)C23)c1 (centres undefined) | -20.9% (inactive) | 
Cc1ccc(S(=O)(=O)N2CCC(C(=O)Nc3ccc(S(=O)(=O)N4CCCC4)cc3)CC2)cc1 | -22.6% (inactive) | 
COc1ccc(C2c3ccc(O)cc3Oc3ncn(CCCO)c(=N)c32)cc1 (centres undefined) | -8.08% (inactive) | 
O=C(CNC(=O)c1n[nH]c2ccccc12)Nc1cc(Cl)ccc1Cl | -8.33% (inactive) | 
CC(Cc1ccccc1Sc1ccccc1O)N(C)C (centres undefined) | -11.9% (inactive) | 
Cc1[nH]c2ccc(C(=O)NC3CCCC3)cc2c1C | -3.79% (inactive) | 
O=C(c1cc([N+](=O)[O-])ccc1N1CCOCC1)N1CCN(c2ccc([N+](=O)[O-])cc2)CC1 | -16.5% (inactive) | 
O=C(CCN1C(=O)C2C3C=CC(C4CC34)C2C1=O)Oc1ccccc1 (centres undefined) | -3.44% (inactive) | 
Cc1cc(C)c(C)c(S(=O)(=O)N2CCC(C(=O)N(C)Cc3nc4ccccc4c(=O)[nH]3)CC2)c1C | -5.52% (inactive) | 
Cc1noc(C)c1S(=O)(=O)Nc1ccc2c(c1)CC(=O)N([C@H](C)CO)C[C@@H](C)[C@H](CN(C)S(=O)(=O)c1ccc(F)cc1)O2 | 4.61% (inactive) | 
CC1(C(=O)N2CCCCC2)CCN1C(=O)Cc1ccc(-c2ccccc2)cc1 (centres undefined) | -5.8% (inactive) | 
NC1=NC[C@H](Cc2ccc(O)cc2)N1CC1CCCCC1 | -11.8% (inactive) | 
Cc1ccc(N2CC(C(=O)N3CCCCCC3)CC2=O)cc1 (centres undefined) | -7.03% (inactive) | 
Cc1c(O)ccc2c(CN3CCN(CCO)CC3)cc(=O)oc12 | -7.06% (inactive) | 
COC(=O)c1ccc(COC(=O)CSCC(=O)Nc2ccc(C)cc2C)cc1 | -2.15% (inactive) | 
O=C(c1ccc(NS(=O)(=O)c2ccccc2)cc1)N1CCOCC1 | -8.07% (inactive) | 

SMILES | activity change, negative = cytotoxicity (at 35 µM (top of the series)) | activity change, negative = cytotoxicity (at 30 µM (top of the series))
CCOC(=O)c1cc(S(=O)(=O)N2CCN(C(=O)OCC)CC2)cn1C | -3.84% (inactive) | 
CC[C@]12c3[nH]c4cc(-c5ccco5)ccc4c3CCN1C(=O)[C@@H](CC(=O)NCc1ccc(OC)c(OC)c1)C[C@@H]2C(=O)N1CCN(C(=O)C2CC2)CC1 | -17.7% (inactive) | 
COc1cc(C(=O)N2CCN(C/C=C/c3ccccc3)CC2)cc(OC)c1OC | -12% (inactive) | 
CCOC(=O)c1ccc2c(c1)nc(SCC(=O)N1CCCCC1)n2CC | -10.4% (inactive) | 
O=C1NC[C@H](Cc2ccc(O)cc2)N(CC2CCCCC2)C1=O | -25.4% (inactive) | 
O=C1CCC(=O)N1c1nc2nc(-c3ccccc3)cc(-c3ccccc3)n2n1 | -9.12% (inactive) | 
C[C@@H]1CN([C@H](C)CO)C(=O)c2cc(NC(=O)Cc3cn(C)c4ccccc34)ccc2O[C@@H]1CN(C)S(=O)(=O)c1ccc(F)cc1 | -8.29% (inactive) | 
CCCc1cc(=O)[nH]c(SCCOc2ccc(OCC)cc2)n1 | -5.03% (inactive) | 
COc1ccc(CN(C)C[C@@H]2Oc3ccc(NC(=O)Nc4ccccc4)cc3CC(=O)N([C@H](C)CO)C[C@@H]2C)cc1 |  | -5.13% (inactive)
Cc1noc(C)c1S(=O)(=O)Nc1ccc2c(c1)CC(=O)N([C@@H](C)CO)C[C@H](C)[C@H](CN(C)S(=O)(=O)c1ccc(F)cc1)O2 | 7.36% (inactive) | 
CC(=O)c1ccc(OCc2cc(C(=O)N3CCCCC3c3cccnc3)no2)cc1 (centres undefined) | -6.2% (inactive) | 
CC(=O)C1=C(O)C(=O)N(CCc2c[nH]c3ccccc23)C1c1ccc(O)cc1 (centres undefined) | -8.38% (inactive) | 
C[C@@H](C(=O)NCc1ccccc1)N1C(=O)C2CC=CCC2C1=O (some centres undefined) | -8.35% (inactive) | 
O=S(=O)(c1ccccc1)N1N=C(c2ccc(O)cc2)CC1c1ccco1 (centres undefined) | -18% (inactive) | 
CCc1nc2ccc(C(=O)N(CC)CC(=O)Nc3c(F)cccc3F)cc2nc1CC | -5.83% (inactive) | 
C[C@H](CO)N1C[C@H](C)[C@@H](CN(C)S(=O)(=O)c2ccc(F)cc2)Oc2ccc(NC(=O)Cc3ccccc3)cc2C1=O | -14.6% (inactive) | 
Cc1c(O)ccc2c(CC(=O)N[C@@H](Cc3c[nH]c4ccccc34)C(=O)O)cc(=O)oc12 | -8.56% (inactive) | 
O=C1CN(c2nc3ccccc3n3cnnc23)CC(=O)N1CCc1ccccc1 | -8.64% (inactive) | 
CCOC(=O)C(C)c1n[nH]c(=O)c2ccccc12 (centres undefined) | -6.39% (inactive) | 
CC1(C(=O)NS(=O)(=O)c2ccccc2Cl)CCN1C(=O)c1ccccc1CCc1ccccc1 (centres undefined) | -8.92% (inactive) | 
Cc1ccc2c(=O)n3c(nc2c1)C(Cc1ccc(O)cc1)NC(=O)c1cccnc1-3 (centres undefined) | -12.6% (inactive) | 
CCOC(=O)c1c(CN2CCOCC2)n(-c2ccccc2)c2cc(Br)c(OC)cc12 | -12.1% (inactive) | 
CC(C)N1CCCC(C)(C(=O)Nc2nc3ccccc3n2C)C1 (centres undefined) | -8.91% (inactive) | 
CCC(=O)N1CCc2cc(S(=O)(=O)CCC(=O)NCc3ccco3)ccc21 | -2.4% (inactive) | 
